According to US20130267494A1, “1,4-OXAZEPANE DERIVATIVES” (priority 2010, published 2013):
Counter-ions that a name gives are not always drawn. Like-named read-outs stand apart in the source and are kept apart here.

How the values were obtained:
Type in all cases: cell-based
[1] = biological target: T1, human serotonin transporter (Homo sapiens, UniProt P31645); assay: Inhibitory action on human serotonin transporter ([3H]-5-hydroxytryptamine uptake in CHO cells); details: compound 1 μM, relative to inhibitory activity of 10 μM Paroxetine as 100%; for inhibition at 1 µM: CHO, read-out: inhibitory rate (%)
T1 construct: expressed in transfected cells
Outline: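 CHO-K1 cells stably expressing human SERT, plated overnight, took up [3H]-5-HT (diluted to 200 nM before a 1:10 addition) for 20 min in HEPES-buffered saline with glucose and 0.5% BSA; radioactivity counted by scintillation. Compounds at 10 μM or 1 μM, activity expressed relative to 10 μM paroxetine set as 100%.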

[2] = biological target: T2, human dopamine transporter (Homo sapiens, UniProt Q01959); assay: Inhibitory action on human dopamine transporter ([3H]-dopamine uptake in CHO cells); details: compound 1 μM, relative to inhibitory activity of 100 μM Nomifensine as 100%; for inhibition at 1 µM: CHO, read-out: inhibitory rate (%)
T2 construct: expressed in transfected cells
Outline: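 CHO-K1 cells stably expressing human dopamine transporter, exposed to compound at 10 μM or 1 μM in HEPES-buffered saline with 0.5% BSA. [3H]-dopamine uptake measured over 60 min by scintillation counting. Activity expressed relative to 100 μM nomifensine as 100%.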

[3] = biological target: T3, human norepinephrine transporter (Homo sapiens, UniProt P23975); assay: Inhibitory action on human norepinephrine transporter ([3H]-norepinephrine uptake in CHO cells); details: relative to inhibitory activity of 10 μM DMI as 100%; for inhibition at 1 µM: CHO
T3 construct: expressed in transfected cells
Outline: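 Stably transfected CHO-K1 cells plated overnight, then given test compound and [3H]-norepinephrine (20 nM final, from 200 nM) in HEPES-buffered saline with 0.5% BSA for 45 min. After PBS washes, retained radioactivity counted by scintillation. Inhibition at 10 μM or 1 μM compound expressed relative to 10 μM DMI as 100%.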

[4] = compound 1 μM, read-out: inhibitory rate (%)
[5] = read-out: inhibitory rate (%), compound 1 μM

T1 sequence (P31645 whole entry): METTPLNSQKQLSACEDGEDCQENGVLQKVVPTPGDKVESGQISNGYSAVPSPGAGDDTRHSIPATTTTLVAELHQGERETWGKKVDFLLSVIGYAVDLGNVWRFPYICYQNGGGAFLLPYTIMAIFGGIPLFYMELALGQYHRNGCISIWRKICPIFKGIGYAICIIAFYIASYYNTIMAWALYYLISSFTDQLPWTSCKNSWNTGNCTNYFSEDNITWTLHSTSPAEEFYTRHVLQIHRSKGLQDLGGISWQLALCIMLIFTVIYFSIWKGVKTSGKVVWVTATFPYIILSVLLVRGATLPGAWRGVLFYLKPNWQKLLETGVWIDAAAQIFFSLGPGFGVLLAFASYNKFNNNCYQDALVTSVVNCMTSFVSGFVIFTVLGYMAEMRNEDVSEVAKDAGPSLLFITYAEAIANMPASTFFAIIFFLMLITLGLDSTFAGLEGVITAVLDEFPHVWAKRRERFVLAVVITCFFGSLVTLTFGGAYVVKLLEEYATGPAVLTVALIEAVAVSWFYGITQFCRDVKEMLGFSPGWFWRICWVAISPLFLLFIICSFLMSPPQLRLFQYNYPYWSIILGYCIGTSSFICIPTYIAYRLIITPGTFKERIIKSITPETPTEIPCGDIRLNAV
T3 sequence (P23975 whole entry): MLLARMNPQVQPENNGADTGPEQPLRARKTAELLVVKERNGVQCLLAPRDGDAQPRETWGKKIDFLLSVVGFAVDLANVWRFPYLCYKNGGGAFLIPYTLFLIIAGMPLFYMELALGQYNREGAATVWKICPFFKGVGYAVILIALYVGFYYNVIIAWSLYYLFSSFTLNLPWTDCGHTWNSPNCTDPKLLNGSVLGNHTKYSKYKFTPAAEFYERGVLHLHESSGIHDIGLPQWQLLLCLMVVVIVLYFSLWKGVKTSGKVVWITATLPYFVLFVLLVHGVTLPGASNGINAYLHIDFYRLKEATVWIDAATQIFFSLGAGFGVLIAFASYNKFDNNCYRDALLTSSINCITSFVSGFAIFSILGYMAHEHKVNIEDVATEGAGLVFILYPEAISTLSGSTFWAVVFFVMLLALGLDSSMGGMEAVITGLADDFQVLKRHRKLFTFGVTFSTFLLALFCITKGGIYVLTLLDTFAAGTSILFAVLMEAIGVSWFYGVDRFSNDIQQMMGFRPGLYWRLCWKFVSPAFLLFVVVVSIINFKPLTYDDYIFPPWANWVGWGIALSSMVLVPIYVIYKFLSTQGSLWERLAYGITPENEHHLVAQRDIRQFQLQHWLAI
T2 sequence (Q01959 whole entry): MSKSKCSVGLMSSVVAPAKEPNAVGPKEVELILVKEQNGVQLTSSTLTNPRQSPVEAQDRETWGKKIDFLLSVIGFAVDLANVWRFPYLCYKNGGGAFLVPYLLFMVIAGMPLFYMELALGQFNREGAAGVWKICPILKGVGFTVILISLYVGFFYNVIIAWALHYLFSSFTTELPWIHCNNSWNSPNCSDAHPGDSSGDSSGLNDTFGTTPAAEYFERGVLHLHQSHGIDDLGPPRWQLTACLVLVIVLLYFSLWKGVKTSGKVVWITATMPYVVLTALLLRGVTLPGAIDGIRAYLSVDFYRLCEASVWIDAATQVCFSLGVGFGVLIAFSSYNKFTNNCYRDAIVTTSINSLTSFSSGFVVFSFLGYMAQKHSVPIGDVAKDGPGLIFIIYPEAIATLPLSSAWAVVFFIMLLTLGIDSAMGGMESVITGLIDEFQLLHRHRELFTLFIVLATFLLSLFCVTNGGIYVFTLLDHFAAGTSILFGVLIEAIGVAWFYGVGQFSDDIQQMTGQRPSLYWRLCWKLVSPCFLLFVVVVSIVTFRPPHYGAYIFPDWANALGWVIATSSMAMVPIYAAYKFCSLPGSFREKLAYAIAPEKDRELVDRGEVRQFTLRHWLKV

Compound	inhibition at 1 µM [1] [%]	inhibition at 1 µM [2] [%]	inhibition at 1 µM [3, 4] [%]	inhibition at 1 µM [3, 5] [%]	inhibitory rate (%) [1] [%]	inhibitory rate (%) [2] [%]	inhibitory rate (%) ([3]; compound 1 μM)
CS(=O)(=O)N[C@H]1CNCCO[C@@H]1c1ccc(Cl)c(Cl)c1 [Example 266, N-[(6S,7R)-7-(3,4-dichlorophenyl)-1,4-oxazepan-yl]methanesulfonamide monohydrochloride]	82	76	103	–	–	–	–
O=C1CN([C@@H]2CNCCO[C@H]2c2ccc(Cl)c(Cl)c2)C(=O)N1 [Example 276, 1-[(6R,7S)-7-(3,4-dichlorophenyl)-1,4-oxazepan-6-yl]imidazolidine-2,4-dione monohydrochloride]	87	94	103	–	–	–	–
OC[C@@H]1CNCCO[C@H]1c1ccc(F)c(Cl)c1 [Example 284, [(6S,7R)-7-(3-chloro-4-fluorophenyl)-1,4-oxazepan-6-yl]methanol monofumarate]	34	11	–	96	–	–	–
OC[C@H]1CNCCO[C@@H]1c1ccc(F)c(Cl)c1 [Example 285, [(6R,7S)-7-(3-chloro-4-fluorophenyl)-1,4-oxazepan-6-yl]methanol 0.5 fumarate]	79	19	94	–	–	–	–
OC[C@@H]1CNCCO[C@H]1c1ccc(Cl)c(F)c1 [Example 301, [(6S,7R)-7-(4-chloro-3-fluorophenyl)-1,4-oxazepan-6-yl]methanol monohydrochloride]	52	10	100	–	–	–	–
OC[C@H]1CNCCO[C@@H]1c1ccc(Cl)c(F)c1 [Example 302, [(6R,7S)-7-(4-chloro-3-fluorophenyl)-1,4-oxazepan-6-yl]methanol monohydrochloride]	73	12	98	–	–	–	–
O=C(CC(F)(F)F)NC[C@@H]1CNCCO[C@H]1c1ccc(Cl)c(F)c1 [Example 314, N-{[(6S,7R)-7-(4-chloro-3-fluorophenyl)-1,4-oxazepan-6-yl]methyl}-3,3,3-trifluoropropanamide monohydrochloride]	49	11	104	–	–	–	–
O=C(CO)NC[C@@H]1CNCCO[C@H]1c1ccc(Cl)c(F)c1 [Example 315, N-{[(6S,7R)-7-(4-chloro-3-fluorophenyl)-1,4-oxazepan-6-yl]methyl}-2-hydroxyacetamide monohydrochloride]	43	13	105	–	–	–	–
O=C(NC[C@@H]1CNCCO[C@H]1c1ccc(Cl)c(F)c1)c1cc(-c2noc(=O)[nH]2)ccc1F [Example 357, N-{[(6S,7R)-7-(4-chloro-3-fluorophenyl)-1,4-oxazepan-6-yl]methyl}-2-fluoro-5-(5-oxo-4,5-dihydro-1,2,4-oxadiazol-3-yl)benzamide monohydrochloride]	102	19	103	–	–	–	–
O=C(NC[C@@H]1CNCCO[C@H]1c1ccc(Cl)c(F)c1)c1ccc[nH]c1=O [Example 367, N-{[(6S,7R)-7-(4-chloro-3-fluorophenyl)-1,4-oxazepan-6-yl]methyl}-2-oxo-1,2-dihydropyridine-3-carboxamide monohydrochloride]	99	57	103	–	–	–	–
O=C1NCCCN1C[C@@H]1CNCCO[C@H]1c1ccc(Cl)c(F)c1 [Example 372, 1-{[(6S,7R)-7-(4-chloro-3-fluorophenyl)-1,4-oxazepan-6-yl]methyl}tetrahydropyrimidin-2(1H)-one monohydrochloride]	98	97	–	103	–	–	–
O=C1CCCCN1C[C@@H]1CNCCO[C@H]1c1ccc(Cl)c(F)c1 [Example 376, 1-{[(6S,7R)-7-(4-chloro-3-fluorophenyl)-1,4-oxazepan-6-yl]methyl}piperidin-2-one monohydrochloride]	98	89	102	–	–	–	–
O=c1[nH]nc(-c2cccn(C[C@@H]3CNCCO[C@H]3c3ccc(Cl)c(F)c3)c2=O)[nH]1 [Example 379, 1-{[(6S,7R)-7-(4-chloro-3-fluorophenyl)-1,4-oxazepan-6-yl]methyl}-3-(5-oxo-4,5-dihydro-1H-1,2,4-triazol-3-yl)pyridin-2(1H)-one monohydrochloride]	95	64	102	–	–	–	–
Cc1cc(C2OCCNCC2CO)ccc1Cl (stereo not drawn) [Example 401, [(6R*,7S*)-7-(4-chloro-3-methylphenyl)-1,4-oxazepan-6-yl]methanol monohydrochloride (retention time short)]	75	17	100	–	–	–	–
Cc1cc(C2OCCNCC2CO)ccc1Cl (stereo not drawn) [Example 402, [(6R*,7S*)-7-(4-chloro-3-methylphenyl)-1,4-oxazepan-6-yl]methanol monohydrochloride (retention time long)]	–	–	–	–	91	19	98
Cc1ccc(C2OCCNCC2CO)cc1Cl (stereo not drawn) [Example 405, [(6R*,7S*)-7-(3-chloro-4-methylphenyl)-1,4-oxazepan-6-yl]methanol monohydrochloride (retention time short)]	71	12	100	–	–	–	–
Cc1ccc(C2OCCNCC2CO)cc1Cl (stereo not drawn) [Example 406, [(6R*,7S*)-7-(3-chloro-4-methylphenyl)-1,4-oxazepan-6-yl]methanol monohydrochloride (retention time long)]	–	–	–	–	82	22	98
OCCOC[C@@]1(c2ccc(Cl)c(Cl)c2)CCNCCO1 [Example 416, 2-{[(7S)-7-(3,4-dichlorophenyl)-1,4-oxazepan-7-yl]methoxy}ethanol monohydrochloride]	85	18	100	–	–	–	–
OCC(O)COC[C@@]1(c2ccc(Cl)c(Cl)c2)CCNCCO1 (stereo partly drawn) [Example 417, 3-{[(7S)-7-(3,4-dichlorophenyl)-1,4-oxazepan-7-yl]methoxy}propane-1,2-diol monohydrochloride]	92	17	102	–	–	–	–
CS(=O)(=O)NC[C@@]1(c2ccc(Cl)c(Cl)c2)CCNCCO1 [Example 432, N-{[(7S)-7-(3,4-dichlorophenyl)-1,4-oxazepan-7-yl]methyl}methanesulfonamide monohydrochloride]	84	10	97	–	–	–	–
O=C1CNC(=O)N1C[C@]1(c2ccc(Cl)c(Cl)c2)CCNCCO1 [Example 438, 3-{[(7R)-7-(3,4-dichlorophenyl)-1,4-oxazepan-7-yl]methyl}imidazolidine-2,4-dione monohydrochloride]	81	6	97	–	–	–	–
O=C1CNC(=O)N1C[C@@]1(c2ccc(Cl)c(Cl)c2)CCNCCO1 [Example 439, 3-{[(7S)-7-(3,4-dichlorophenyl)-1,4-oxazepan-7-yl]methyl}imidazolidine-2,4-dione monohydrochloride]	74	7	98	–	–	–	–
OCC1CNCCOC1c1ccc(Cl)c(F)c1 (stereo not drawn) [Example 440, [(6R*,7R*)-7-(4-chloro-3-fluorophenyl)-1,4-oxazepan-6-yl]methanol monohydrochloride (retention time short)]	–	10	105	–	93	–	–
OCC1CNCCOC1c1ccc(Cl)c(F)c1 (stereo not drawn) [Example 441, [(6R*,7R*)-7-(4-chloro-3-fluorophenyl)-1,4-oxazepan-6-yl]methanol monohydrochloride (retention time long)]	–	–	–	–	51	6	103
OC[C@H]1OCCNC[C@H]1c1ccc(Cl)c(Cl)c1 [Example 447, [(6R,7S)-6-(3,4-dichlorophenyl)-1,4-oxazepan-7-yl]methanol monohydrochloride]	42	51	99	–	–	–	–
OC[C@@H]1OCCNC[C@@H]1c1ccc(Cl)c(Cl)c1 [Example 448, [(6S,7R)-6-(3,4-dichlorophenyl)-1,4-oxazepan-7-yl]methanol monohydrochloride]	28	7	88	–	–	–	–
CC(=O)NC[C@H]1OCCNC[C@H]1c1ccc(Cl)c(Cl)c1 [Example 453, N-{[(6R,7S)-6-(3,4-dichlorophenyl)-1,4-oxazepan-7-yl]methyl}acetamide monohydrochloride]	41	99	104	–	–	–	–
